This note sets out measurements from patent US20250250257A1, “NOVEL CRYSTALLINE FORMS” (Assembly Biosciences, Inc., priority 2021, published 2025).

Each structure is given as a SMILES string.

Series [1] can be described thus: DVS (water sorption, hygroscopicity, form change post-DVS). Type of series: physicochemical.
Series [2] is described as follows: Competitive slurry studies, solid form checked by XRPD (thermodynamic stability of forms). The format is physicochemical. How it is done:
Competitive slurry studies with Type 1 and the material produced from manufacture (Type 1 and 8 mixture) were performed at 25 and 50° C. in THF, EtOH and EtOAc. The solid form was checked by XRPD on day 3 and day 7.

`Cn1cnc([C@@H]2C[C@@H]3C[C@@](O)(c4cc(OCC(C)(C)O)nn4C)C[C@@H]3C2)c1C(=O)Nc1ccc(F)c(Cl)c1` [Type 8, N-(3-chloro-4-fluorophenyl)-4-((2s,3aR,5r,6aS)-5-hydroxy-5-(3-(2-hydroxy-2-methylpropoxy)-1-methyl-1H-pyrazol-5-yl)octahydropentalen-2-yl)-1-methyl-1H-imidazole-5-carboxamide]: the “water update at 80% RH (DVS)” value in series [1] (80% RH) turned out to be 0.1%. In series [1] (after DVS (desorption and resorption)), the “form change post-DVS (XRPD)” value is recorded as “No change in crystalline form”. For the same compound, the “hygroscopicity (from DVS)” value in series [1] (based on water sorption at 80% RH) is recorded as “non-hygroscopic”. For the same compound, the “thermodynamic stability among all forms discovered” value in series [2] was “the most thermodynamically stable form discovered to date”. Moreover, the “relative thermodynamic stability of the form” value in series [2] (at 25 and 50° C., versus Type 1) is listed as “the more thermodynamically stable form”.
